{"source": "patent US8883227B2", "about": "“Plant pathogen inhibitor combinations and methods of use” (priority 2009, dated 2014)", "format_in_all_cases": "in vivo", "key": {"Sphaerotheca fuliginea": {"system": "Sphaerotheca fuliginea", "assay": "Greenhouse cucumber powdery mildew test, foliar spray alone or in tank mix", "procedure": "The studies were conducted in a green house. Experimental design of the studies for synergism followed the Burpee and Latin (2008). Powdery mildew, caused by Sphaerotheca fuliginea, was used for investigating the efficacy of the treatments.\nCucumber seeds cv. “SMR 58” (Irwin & Sons Ag Supply, Inc. Cheshire, Oreg.) were grown in plastic 4-inch pots with potting soil mix (Rod McLellan Company, Marysville, Ohio). The plants were treated at 2-true leaf stage. The compounds at various rates were sprayed with a 2-oz mist sprayer at 2 ml per plant at upper side and 1 ml at lower side of the leaves. The treated plants were left for 3-4 hours under florescent light to dry before inoculation.\nA conidia suspension of Sphaerotheca fuliginea, the causal agent of powdery mildew disease on cucumber, was prepared by cutting diseases leaves of the cucumber plants that are served for conservation of inoculum. The suspension were adjusted to 2.0×10^5 conidia per ml and applied with a 2-oz mist sprayer at 2 ml per plant on the upper side of the leaves. The inoculated plants were placed in a greenhouse and the treatments were arranged in randomized complete blocks with 4 to 6 replicates at 25° C. to 30° C.\nThe disease severity (percentage area covered with colonies) of the first leaves were rated according to James (1971). Disease severity and percentage control were analyzed with analysis of variance (ANOVA) and means of the treatments were compared with Fisher's Protected Least Difference (LSD) at p=0.05 level. Synergetic effect was calculated and analyzed with Limpel's formula (Limpel et al., 1962; Richer, 1987)."}, "Rhizoctonia solani": {"system": "Rhizoctonia solani", "assay": "Soybean seed treatment (seed coating) in infested soil, damping off", "details": "inoculated", "procedure": "The experiments described below were conducted with soybean but similar procedures are used with other crops such as cereals, corn, cotton, and potatoes.\nThe experiments were conducted in a greenhouse following the procedure developed by Hwang et al. (2006). The isolate of Rhizoctonia solani was grown on potato dextrose agar plates and cultured for 5 days for inoculating oat or wheat grain. One liter of grain was soaked overnight at room temperature (25° C.) and rinsed three times with tape water. The 8×12-in autoclave bags were filled with the grain up to ⅓ full were autoclaved at 121° C. for 15 min. The autoclaved grain then was then inoculated with 5 pieces of 1×1 cm plug of the 5-day culture of R. solani per bag and cultured for 5 days at room temperature (25° C.). The bags were left open in laminar flow hood to let the grain completely dry.\nThe blank seed sample of 10 g to be coated was placed in a flask. Coating agent SEPIRET® 1171-O (Becker Underwood Ltd., Ames, Iowa) was put into the flasks together with the compound of interest, and the flask was shaken vigorously so that the seed picked up the compound. The procedure was repeated with fresh seed sample of cvs. “White Lion” (Kitazawa Seed Co., Oakland, Calif.) or “Viking 2265” (Johnny's Selected Seeds, Winslow, Me.) in the same flask for the treatments. After the seeds were coated, they were left to air dry before planting.\nTo prepare the soil, five hundred milliliters of the dried grains with inoculum were blended for 15 seconds three times and the powder was mixed with sterile sand at 1:1 (v/v) to dilute the inoculum. The sand mix was further used to prepare soil mix at various proportions 1:350 to 1:800 (inoculum:soil) for soybean to generate various disease levels in repeated tests.\nThe coated seeds were planted in the pots with infested soil. There were three replicates of each treatment which were arranged in a complete randomized block design and placed at 25 to 30° C. in a greenhouse.\nAfter 10 to 20 days, depending on disease pressure and temperature, emergence of each treatment was rated and compared. Biomass was measured by weighing the above-ground portion which was measured for each replicate of the plant material."}, "Bremia lactucae": {"system": "Bremia lactucae", "assay": "Lettuce downy mildew test on cotyledons", "procedure": "Synergy between MBI-106 and acibenzolar-S-methyl or mefenoxam which control a specific class of pathogens Oomycetes was tested with lettuce downy mildew following Su et al. (2004).\nTo prepare inoculum of downy mildew, lettuce seeds were placed on […] petri-dishes with about 20-30 seeds in each and watered with sterile water, then supplied with ½ strength of Hoagland's solution after germination. The petri dishes were placed at 20° C. growth chamber for 7-10 days. The spores of Bremia lactucae was inoculated on lettuce cotyledons and cultured for 7-10 days at 15° C. for sporulation to occur. Cotyledons with sporulation were cut off and placed in a falcon tube with sterile water. The cotyledons were vortexed for 15 seconds three times and filtered through a 100-uμm mesh to collect sporangia. The solution was adjusted to 0.5 to 1.0×10^5 spores/ml for inoculation.\nFour test plants were seeded in each 2-in pots and then placed at 20° C. for 7-10 days to grow cotyledons. Plants were ready for test when the first true leaf was emerging.\nThe lettuce plants were treated with the materials and left to dry or overnight. Then the plants were inoculated with sporangial solution. The treatments were arranged in a randomized complete block design with four replicates. The inoculated plants were placed in darkness in growth chamber for 48 hours and then incubated under 12-h light period at 15° C. Eight to ten days after inoculation, the cotyledons were rated for disease severity (percentage area covered with sporangiophores)."}, "[1]": {"details": "Example V, triflumizole 0.25 ug/ml alone"}, "[2]": {"details": "Example V, triflumizole 0.5 ug/ml alone"}, "[3]": {"details": "Example V, triflumizole 1.0 ug/ml alone"}, "[4]": {"details": "Example III, quinoxyfen 0.01 ug/ml alone"}, "[5]": {"details": "Example III, quinoxyfen 0.05 ug/ml alone"}, "[6]": {"details": "Example IX, fludioxonil 0.0596 g ai/kg alone"}, "[7]": {"details": "Example X, propiconazole 1.0 ug/ml alone"}, "[8]": {"details": "Example VI, acibenzolar-S-methyl 25 ug/ml alone"}, "[9]": {"details": "Example VII, mefenoxam 37.5 ug/ml alone"}, "[10]": {"details": "Example VII, mefenoxam 75 ug/ml alone"}, "[11]": {"details": "Example VII, mefenoxam 150 ug/ml alone"}, "[12]": {"details": "Example IV, azoxystrobin 0.25 ug/ml alone"}, "[13]": {"details": "Example IV, azoxystrobin 0.5 ug/ml alone"}, "[14]": {"details": "Example IV, azoxystrobin 1.0 ug/ml alone"}, "[15]": {"details": "Example IV, azoxystrobin 5.0 ug/ml alone"}, "[16]": {"details": "Example IV, azoxystrobin 10.0 ug/ml alone"}, "[17]": {"details": "Example XI (Test II), azoxystrobin 0.1 ug/ml alone"}, "[18]": {"details": "Example XI (Test II), azoxystrobin 0.25 ug/ml alone"}, "[19]": {"details": "Example XI (Test II), azoxystrobin 0.5 ug/ml alone"}, "[20]": {"details": "Example VIII, azoxystrobin 0.0298 g/kg alone"}, "[21]": {"details": "Example I, myclobutanil 0.05 ug/ml alone"}, "[22]": {"details": "Example I, myclobutanil 0.1 ug/ml alone"}, "[23]": {"details": "Example I, myclobutanil 0.25 ug/ml alone"}, "[24]": {"details": "Example II (repeated test), myclobutanil 0.05 ug/ml alone"}, "[25]": {"details": "Example II (repeated test), myclobutanil 0.1 ug/ml alone"}, "[26]": {"details": "Example II (repeated test), myclobutanil 0.25 ug/ml alone"}}}
{"smiles": "CCCOC/C(=N\\c1ccc(Cl)cc1C(F)(F)F)n1ccnc1", "note": "[triflumizole]", "values": [{"measurement": "Control (%)", "setting": "Sphaerotheca fuliginea; [1]", "value": 2.6, "unit": "%"}, {"measurement": "Severity (%)", "setting": "Sphaerotheca fuliginea; [1]", "value": 95.0, "unit": "%"}, {"measurement": "Control (%)", "setting": "Sphaerotheca fuliginea; [2]", "value": 11.5, "unit": "%"}, {"measurement": "Severity (%)", "setting": "Sphaerotheca fuliginea; [2]", "value": 86.3, "unit": "%"}, {"measurement": "Control (%)", "setting": "Sphaerotheca fuliginea; [3]", "value": 20.5, "unit": "%"}, {"measurement": "Severity (%)", "setting": "Sphaerotheca fuliginea; [3]", "value": 77.5, "unit": "%"}]}
{"smiles": "Fc1ccc(Oc2ccnc3cc(Cl)cc(Cl)c23)cc1", "note": "[quinoxyfen, 5,7-dichloro-4-quinolyl 4-fluorophenyl ether]", "values": [{"measurement": "Control (%)", "setting": "Sphaerotheca fuliginea; [4]", "value": 1.33, "unit": "%"}, {"measurement": "Severity (%)", "setting": "Sphaerotheca fuliginea; [4]", "value": 90.0, "unit": "%"}, {"measurement": "Control (%)", "setting": "Sphaerotheca fuliginea; [5]", "value": 66.95, "unit": "%"}, {"measurement": "Severity (%)", "setting": "Sphaerotheca fuliginea; [5]", "value": 30.0, "unit": "%"}]}
{"smiles": "N#Cc1c[nH]cc1-c1cccc2c1OC(F)(F)O2", "note": "[fludioxonil]", "values": [{"measurement": "Bio mass", "setting": "Rhizoctonia solani; [6]", "value": 8.7, "unit": "g"}, {"measurement": "Control (%)", "setting": "Rhizoctonia solani; [6]", "value": 28.4, "unit": "%"}, {"measurement": "Emergence (%)", "setting": "Rhizoctonia solani; [6]", "value": 35.8, "unit": "%"}]}
{"smiles": "CCCC1COC(Cn2cncn2)(c2ccc(Cl)cc2Cl)O1", "note": "(centres unmarked) [propiconazole]", "values": [{"measurement": "Control (%)", "setting": "Sphaerotheca fuliginea; [7]", "value": 1.3, "unit": "%"}, {"measurement": "Severity (%)", "setting": "Sphaerotheca fuliginea; [7]", "value": 97.5, "unit": "%"}]}
{"smiles": "CSC(=O)c1cccc2nnsc12", "note": "[acibenzolar-S-methyl]", "values": [{"measurement": "Control (%)", "setting": "Bremia lactucae; [8]", "value": 23.4, "unit": "%"}, {"measurement": "Severity (%)", "setting": "Bremia lactucae; [8]", "value": 68.9, "unit": "%"}]}
{"smiles": "COCC(=O)N(c1c(C)cccc1C)[C@H](C)C(=O)OC", "note": "[mefenoxam]", "values": [{"measurement": "Control (%)", "setting": "Bremia lactucae; [9]", "value": "−2.6", "unit": "%"}, {"measurement": "Severity (%)", "setting": "Bremia lactucae; [9]", "value": 89.3, "unit": "%"}, {"measurement": "Control (%)", "setting": "Bremia lactucae; [10]", "value": 37.7, "unit": "%"}, {"measurement": "Severity (%)", "setting": "Bremia lactucae; [10]", "value": 54.2, "unit": "%"}, {"measurement": "Control (%)", "setting": "Bremia lactucae; [11]", "value": 48.5, "unit": "%"}, {"measurement": "Severity (%)", "setting": "Bremia lactucae; [11]", "value": 44.8, "unit": "%"}]}
{"smiles": "CO/C=C(/C(=O)OC)c1ccccc1Oc1cc(Oc2ccccc2C#N)ncn1", "note": "[azoxystrobin]", "values": [{"measurement": "Control (%)", "setting": "Sphaerotheca fuliginea; [12]", "value": 51.8, "unit": "%"}, {"measurement": "Severity (%)", "setting": "Sphaerotheca fuliginea; [12]", "value": 45.0, "unit": "%"}, {"measurement": "Control (%)", "setting": "Sphaerotheca fuliginea; [13]", "value": 48.0, "unit": "%"}, {"measurement": "Severity (%)", "setting": "Sphaerotheca fuliginea; [13]", "value": 48.8, "unit": "%"}, {"measurement": "Control (%)", "setting": "Sphaerotheca fuliginea; [14]", "value": 68.1, "unit": "%"}, {"measurement": "Severity (%)", "setting": "Sphaerotheca fuliginea; [14]", "value": 30.0, "unit": "%"}, {"measurement": "Control (%)", "setting": "Sphaerotheca fuliginea; [15]", "value": 94.3, "unit": "%"}, {"measurement": "Severity (%)", "setting": "Sphaerotheca fuliginea; [15]", "value": 5.3, "unit": "%"}, {"measurement": "Control (%)", "setting": "Sphaerotheca fuliginea; [16]", "value": 87.6, "unit": "%"}, {"measurement": "Severity (%)", "setting": "Sphaerotheca fuliginea; [16]", "value": 11.3, "unit": "%"}, {"measurement": "Control (%)", "setting": "Sphaerotheca fuliginea; [17]", "value": 21.6, "unit": "%"}, {"measurement": "Severity (%)", "setting": "Sphaerotheca fuliginea; [17]", "value": 72.5, "unit": "%"}, {"measurement": "Control (%)", "setting": "Sphaerotheca fuliginea; [18]", "value": 13.5, "unit": "%"}, {"measurement": "Severity (%)", "setting": "Sphaerotheca fuliginea; [18]", "value": 80.0, "unit": "%"}, {"measurement": "Control (%)", "setting": "Sphaerotheca fuliginea; [19]", "value": 62.2, "unit": "%"}, {"measurement": "Severity (%)", "setting": "Sphaerotheca fuliginea; [19]", "value": 35.0, "unit": "%"}, {"measurement": "Control (%)", "setting": "Rhizoctonia solani; [20]", "value": 81.5, "unit": "%"}, {"measurement": "Emergence (%)", "setting": "Rhizoctonia solani; [20]", "value": 86.4, "unit": "%"}]}
{"smiles": "CCCCC(C#N)(Cn1cncn1)c1ccc(Cl)cc1", "note": "(centres unmarked) [myclobutanil]", "values": [{"measurement": "Control (%)", "setting": "Sphaerotheca fuliginea; [21]", "value": 2.5, "unit": "%"}, {"measurement": "Severity (%)", "setting": "Sphaerotheca fuliginea; [21]", "value": 95.8, "unit": "%"}, {"measurement": "Control (%)", "setting": "Sphaerotheca fuliginea; [22]", "value": 3.2, "unit": "%"}, {"measurement": "Severity (%)", "setting": "Sphaerotheca fuliginea; [22]", "value": 95.0, "unit": "%"}, {"measurement": "Control (%)", "setting": "Sphaerotheca fuliginea; [23]", "value": 83.1, "unit": "%"}, {"measurement": "Severity (%)", "setting": "Sphaerotheca fuliginea; [23]", "value": 16.7, "unit": "%"}, {"measurement": "Control (%)", "setting": "Sphaerotheca fuliginea; [24]", "value": "−2.8", "unit": "%"}, {"measurement": "Severity (%)", "setting": "Sphaerotheca fuliginea; [24]", "value": 93.8, "unit": "%"}, {"measurement": "Control (%)", "setting": "Sphaerotheca fuliginea; [25]", "value": 12.2, "unit": "%"}, {"measurement": "Severity (%)", "setting": "Sphaerotheca fuliginea; [25]", "value": 80.0, "unit": "%"}, {"measurement": "Control (%)", "setting": "Sphaerotheca fuliginea; [26]", "value": 41.3, "unit": "%"}, {"measurement": "Severity (%)", "setting": "Sphaerotheca fuliginea; [26]", "value": 53.8, "unit": "%"}]}
